Measurements: patent US9884842B2, “Combretastatin analogs” (The Board of Trustees of the University of Arkansas, priority 2013, dated 2018)
Read-outs that look alike come from different tables or passages of the source.

How the values were obtained:
[1] = test system: HT29; experiment: NCI growth inhibition and cytotoxicity screen, Colon Cancer panel; conditions: Homo sapiens; for GI50: HT-29; for CC50: HT-29, read-out: LC50
[2] = test system: HOP-92; experiment: NCI growth inhibition and cytotoxicity screen, Lung Cancer panel; conditions: Homo sapiens; for GI50: HOP-92; for CC50: HOP-92, read-out: LC50
[3] = test system: BT-549; experiment: NCI growth inhibition and cytotoxicity screen, Breast Cancer panel; conditions: Homo sapiens; for GI50: BT-549; for CC50: BT-549, read-out: LC50
[4] = test system: OVCAR-8; experiment: NCI growth inhibition and cytotoxicity screen, Ovarian Cancer panel; conditions: Homo sapiens; for GI50: OVCAR-8; for CC50: OVCAR-8, read-out: LC50
[5] = test system: DU-145; experiment: NCI growth inhibition and cytotoxicity screen, Prostate Cancer panel; conditions: Homo sapiens; for GI50: DU-145; for CC50: DU-145, read-out: LC50
[6] = test system: UO-31; experiment: NCI growth inhibition and cytotoxicity screen, Renal Cancer panel; conditions: Homo sapiens; for GI50: UO-31; for CC50: UO-31, read-out: LC50
[7] = test system: COLO 205; experiment: NCI growth inhibition and cytotoxicity screen, Colon Cancer panel; conditions: Homo sapiens; for CC50: COLO 205, read-out: LC50
[8] = test system: A498; experiment: NCI growth inhibition and cytotoxicity screen, Renal Cancer panel; conditions: Homo sapiens; for GI50: A498; for CC50: A498, read-out: LC50
[9] = test system: SR; experiment: NCI growth inhibition and cytotoxicity screen, Leukemia panel; conditions: Homo sapiens; for CC50: read-out: LC50
[10] = test system: RPMI-8226; experiment: as above; conditions: Homo sapiens; for GI50: RPMI-8226; for CC50: RPMI-8226, read-out: LC50
[11] = test system: full panel of 60 different cancer cell lines; experiment: NCI five dose screen, full panel summary; assay type: cell-based, human; conditions: for GI50: Homo sapiens
[12] = test system: HCT-116; experiment: NCI growth inhibition and cytotoxicity screen, Colon Cancer panel; conditions: Homo sapiens; for GI50: HCT-116; for CC50: HCT-116, read-out: LC50
[13] = test system: SK-MEL-28; experiment: NCI growth inhibition and cytotoxicity screen, Melanoma panel; conditions: Homo sapiens; for GI50: SK-MEL-28; for CC50: SK-MEL-28, read-out: LC50
[14] = test system: T-47D; experiment: NCI growth inhibition and cytotoxicity screen, Breast Cancer panel; conditions: Homo sapiens, T47D; for CC50: read-out: LC50
[15] = test system: OVCAR-3; experiment: cells; conditions: Homo sapiens; for GI50: OVCAR-3; for CC50: OVCAR-3, read-out: LC50
[16] = test system: UACC-62; experiment: NCI growth inhibition and cytotoxicity screen, Melanoma panel; conditions: Homo sapiens; for GI50: UACC-62; for CC50: UACC-62, read-out: LC50
[17] = test system: M14; experiment: as above; conditions: Homo sapiens; for GI50: M14; for CC50: M14, read-out: LC50
[18] = test system: SF-268; experiment: NCI growth inhibition and cytotoxicity screen, CNS Cancer panel; conditions: Homo sapiens; for GI50: SF-268; for CC50: SF-268, read-out: LC50
[19] = test system: HL-60(TB); experiment: cells; conditions: Homo sapiens; for GI50: HL-60; for CC50: HL-60, read-out: LC50
[20] = test system: HOP-62; experiment: NCI growth inhibition and cytotoxicity screen, Lung Cancer panel; conditions: Homo sapiens; for GI50: HOP-62; for CC50: HOP-62, read-out: LC50
[21] = test system: MDA-MB-435; experiment: NCI growth inhibition and cytotoxicity screen, Melanoma panel; conditions: Homo sapiens; for GI50: MDA-MB-435; for CC50: MDA-MB-435, read-out: LC50
[22] = test system: A549/ATCC; experiment: NCI growth inhibition and cytotoxicity screen, Lung Cancer panel; conditions: Homo sapiens; for GI50: A549; for CC50: A549, read-out: LC50
[23] = test system: NCI/ADR-RES; experiment: NCI growth inhibition and cytotoxicity screen, Ovarian Cancer panel; conditions: Homo sapiens; for CC50: read-out: LC50
[24] = test system: RXF 393; experiment: NCI growth inhibition and cytotoxicity screen, Renal Cancer panel; conditions: Homo sapiens; for GI50: RXF 393; for CC50: RXF 393, read-out: LC50
[25] = test system: NCI-H460; experiment: NCI growth inhibition and cytotoxicity screen, Lung Cancer panel; conditions: Homo sapiens; for GI50: NCI-H460; for CC50: NCI-H460, read-out: LC50
[26] = test system: TK-10; experiment: NCI growth inhibition and cytotoxicity screen, Renal Cancer panel; conditions: Homo sapiens; for GI50: TK-10; for CC50: TK-10, read-out: LC50
[27] = test system: 786-0; experiment: as above; conditions: Homo sapiens; for GI50: 786-0; for CC50: 786-0, read-out: LC50
[28] = test system: IGROV1; experiment: NCI growth inhibition and cytotoxicity screen, Ovarian Cancer panel; conditions: Homo sapiens; for GI50: IGROV-1; for CC50: IGROV-1, read-out: LC50

With `COc1cc(/C(C#N)=C/c2cnc3ccccc3c2)cc(OC)c1OC` [PNR-5-10, (Z)-3-(quinolin-3-yl)-2-(3,4,5-trimethoxyphenyl)acrylonitrile] the GI50 [1] was 421 nM, the CC50 [1] was > 100000 nM and the GI50 [2] was 403 nM. For the same compound, the CC50 [2] was > 100000 nM, the GI50 [3] was 1430 nM and the CC50 [3] was > 100000 nM. For the same compound, the GI50 [4] was 3410 nM, the CC50 [4] was > 100000 nM and the GI50 [5] was 1510 nM. For the same compound, the CC50 [5] was > 100000 nM, the GI50 [6] was 580 nM and the CC50 [6] was > 100000 nM. The CC50 [7] was 9440 nM, the GI50 [8] was 678 nM and the CC50 [8] was > 100000 nM. The GI50 [9] was 569 nM, the CC50 [9] was > 100000 nM and the GI50 [10] was 2060 nM. The CC50 [10] was > 100000 nM, the GI50 ([11]; range over the potently inhibited cell lines, read-out: GI50 ranging (potently inhibited cancer cell lines)) was 227 to 911 nM and the GI50 ([11]; read-out: average GI50 value on all the cancer cell lines) was 2490 nM. For the same compound, the “potent growth inhibition on % of the cancer cell lines” value ([11]; share of the cancer cell lines potently inhibited) was 47%, the GI50 [12] was 464 nM and the CC50 [12] was > 100000 nM. For the same compound, the GI50 [13] was 3270 nM, the CC50 [13] was > 100000 nM and the GI50 [14] was 9540 nM. The CC50 [14] was > 100000 nM, the GI50 [15] was 263 nM and the CC50 [15] was > 100000 nM. For the same compound, the GI50 [16] was 478 nM, the CC50 [16] was > 100000 nM and the GI50 [17] was 540 nM. For the same compound, the CC50 [17] was > 100000 nM, the GI50 [18] was 9170 nM and the CC50 [18] was > 100000 nM. The GI50 [19] was 329000 nM, the CC50 [19] was > 100000 nM and the GI50 [20] was 10300 nM. The CC50 [20] was > 100000 nM, the GI50 [21] was 227 nM and the CC50 [21] was > 100000 nM. For the same compound, the GI50 [22] was 680 nM, the CC50 [22] was > 100000 nM and the GI50 [23] was 343 nM. For the same compound, the CC50 [23] was > 100000 nM, the GI50 [24] was 579 nM and the CC50 [24] was > 100000 nM. For the same compound, the GI50 [25] was 2050 nM, the CC50 [25] was > 100000 nM and the GI50 [26] was 2550 nM. The CC50 [26] was > 100000 nM, the GI50 [27] was 6290 nM and the CC50 [27] was > 100000 nM. The GI50 [28] was 3150 nM and the CC50 [28] was > 100000 nM.
With `COc1cc(/C=C/c2cc3ccccc3o2)cc(OC)c1OC` [Formula (I)(c)] the GI50 [1] was 0.37 nM, the CC50 [1] was > 100000 nM and the GI50 [2] was 0.17 nM. The CC50 [2] was > 100000 nM, the GI50 [3] was 1.09 nM and the CC50 [3] was 79500 nM. The GI50 [4] was 2.05 nM, the CC50 [4] was > 100000 nM and the GI50 [5] was 1.86 nM. The CC50 [5] was > 100000 nM, the GI50 [6] was 1.15 nM and the CC50 [6] was > 100000 nM. The GI50 ([7]; COLO 205) was 0.4 nM, the CC50 [7] was 19500 nM and the GI50 [8] was 0.4 nM. The CC50 [8] was 48400 nM, the GI50 [9] was 0.09 nM and the CC50 [9] was > 100000 nM. For the same compound, the GI50 [10] was 0.7 nM, the CC50 [10] was > 100000 nM and the GI50 [12] was 0.522 nM. For the same compound, the CC50 [12] was 77000 nM, the GI50 [13] was 0.83 nM and the CC50 [13] was > 100000 nM. For the same compound, the GI50 [14] was 0.69 nM, the CC50 [14] was > 100000 nM and the GI50 [15] was 0.42 nM. For the same compound, the CC50 [15] was 48100 nM, the GI50 [16] was 0.5 nM and the CC50 [16] was > 100000 nM. The GI50 [17] was 0.47 nM, the CC50 [17] was 88400 nM and the GI50 [18] was 0.86 nM. The CC50 [18] was > 100000 nM, the GI50 [19] was 0.35 nM and the CC50 [19] was > 100000 nM. The GI50 [20] was 0.77 nM, the CC50 [20] was > 100000 nM and the GI50 [21] was 0.078 nM. For the same compound, the CC50 [21] was > 100000 nM, the GI50 [22] was 0.61 nM and the CC50 [22] was > 100000 nM. The GI50 [23] was 0.51 nM, the CC50 [23] was > 100000 nM and the GI50 [24] was 0.32 nM. For the same compound, the CC50 [24] was > 100000 nM, the GI50 [25] was 0.41 nM and the CC50 [25] was > 100000 nM. For the same compound, the GI50 [26] was 8.4 nM, the CC50 [26] was > 100000 nM and the GI50 [27] was 0.85 nM. For the same compound, the CC50 [27] was 79800 nM, the GI50 [28] was 0.8 nM and the CC50 [28] was > 100000 nM.
